Test results as given in article PMC5383040, “Inhibition of prenylated KRAS in a lipid environment” (PLoS ONE, 2017).
Read-outs that look alike come from different tables or passages of the source.

Legend:
[1] = molecular target: T1, prenylated KRAS^G12V loaded with GTPγS (Homo sapiens, UniProt P01116, G12V); assay: Biolayer interferometry (BLI) binding to full-length prenylated KRAS in PS; settings: for binding in BLI studies: at 10 μM, full-length prenylated KRAS in PS
T1 construct: Avi-tag-(Gly)8 –KRAS^G12V (2–188) was cloned into the pFastBac1 vector; made in house; host or cells: Tn5 insect cells, co-infected with BirA virus
Procedure: Determination of Kds was performed on the Octet RED platform, according to the manufacturer's recommendations in their application note on small molecule analysis. The prenylated KRAS peptide containing the farnesyl group attached to the terminal cysteine (biotin-[sequence](farnesyl)-OCH3) was obtained from AnaSpec (Fremont, California). […] After incubation for 1h at RT, the protein was loaded into a 96-well plate (Greiner 655209), and loaded a BLI response of 3-4nm. […] A reference sensor was run to remove systematic drift, and a second set of SuperStreptavidin biosensors blocked with biocytin was examined to remove systematic optical interferences, and to check for non-specific binding of compounds to the biosensor. Kds were determined using the ForteBio analysis software tool, which determines Kd from the steady-state plot, or from the determination of the kinetic constants kon and koff.

SW1990 cells = assay: Proliferation assay (CellTiter-Glo); type: cell-based; settings: Homo sapiens, 120 h, 5 days, read-out: Growth inhibition EC50
Procedure: Cells were seeded in 384-well plates and incubated with a 1:3 serial dilution of compound starting from 30 μM at 37°C with 5% CO2 for 5 days. Cell viability was measured using the CellTiter-Glo® Luminescent Cell Viability Assay kit (Promega) and read on an Envision (Perkin Elmer) plate reader. Percent growth inhibition was calculated by normalizing treatment to DMSO control. […] For every compound, each concentration was run in triplicate and all points were used for fitting a single curve.

KRAS construct 1–180 = molecular target: T2, KRAS construct 1–180 (Homo sapiens, UniProt P01116, G12V); assay: BLI control with KRAS construct lacking the C-terminus; type: binding; settings: KRAS 1–180 lacking C-terminus and prenyl group, 10 μM compound
T2 construct: (His)6-TEV (N, cleaved yes); made in house; host or cells: E. coli BL21 (DE3), co-transformed with BirA

A375 cells (BRAF^V600E) = assay: Western blot analysis of pAKT and pERK in A375; type: cell-based; settings: 3hrs treatment
Procedure: (§1) Cells were seeded in 6-well plates and treated with compounds or DMSO at the indicated concentrations for 3hrs. Total cell lysates were prepared in either M-PER (Pierce) or RIPA lysis buffer (50 mM Tris-HCl, pH 8.0, 150 mM NaCl, 0.5% NP-40, 0.5% sodium deoxycholate) supplemented with 1x protease inhibitor cocktail (Sigma) and 1x phosphatase inhibitor cocktails (Sigma). Lysates were normalized for protein concentration, resolved by SDS-PAGE, transferred onto nitrocellulose membranes and probed with the indicated antibodies.

[2] = molecular target: T3, 18-residue KRAS C-terminal prenylated peptide (Homo sapiens, UniProt P01116); assay: BLI with KRAS C-terminal prenylated peptide in PS; type: binding
T3 construct: (biotin-[…](farnesyl)-OCH3) was obtained from AnaSpec (Fremont, California); purchased AnaSpec (Fremont, California); host or cells: synthetic peptide
Procedure: Determination of Kds was performed on the Octet RED platform, according to the manufacturer's recommendations in their application note on small molecule analysis. The prenylated KRAS peptide containing the farnesyl group attached to the terminal cysteine (biotin-[…](farnesyl)-OCH3) was obtained from AnaSpec (Fremont, California). Proteins were obtained as described above. The assay buffer was 25mM Tris containing 190mM glycine, 5mM MgCl2, 0.01% Triton X-100, 1mM DTT and 1.3uM PS (liposome preparation as described above). The protein was attached to SuperStreptavidin biosensors (ForteBio 18–5057) via Avi-tagged-KRAS G12V:GTPγS with C-terminal prenylgroup by adding 2μL of the 5mg/mL solution of PS to 2mL of assay buffer, followed by the KRAS protein to a final concentration of 40nM. After incubation for 1h at RT, the protein was loaded into a 96-well plate (Greiner 655209), and loaded a BLI response of 3-4nm. […] Kds were determined using the ForteBio analysis software tool, which determines Kd from the steady-state plot, or from the determination of the kinetic constants kon and koff. […] After establishing reproducibility with compound 3, all other compounds were measured in singleton.

SW1990 cells (KRAS^G12D) = assay: Western blot analysis of pAKT and pERK in SW1990; type: cell-based, human; settings: 3hrs treatment, dose-response
Procedure: as §1

full length BRAF^V600E = molecular target: T4, full length BRAF^V600E (Homo sapiens, UniProt P15056, V600E); assay: BRAF^V600E counter-screen (coupled assay lacking KRAS); type: biochemical
T4 construct: made in house; host or cells: insect cells (Sf9, Sf21 or Tn5), baculovirus pBlueBac4.5
Procedure: An assay consisting of full length BRAF^V600E was used to flag inhibitors acting directly on BRAF, taking advantage of the constitutive activity of the BRAF mutant. […] The counter assay buffer, other components and order of addition matched the RAS-dependent assay except for the presence of KRAS. This assay was reproducible from run to run. […] After establishing reproducibility with this compound, all other compounds were measured with N≥2.

full-length KRAS = molecular target: T5, full-length KRAS (Homo sapiens, UniProt P01116, G12V); assay: BLI control with full-length KRAS in the absence of PS; type: binding
T5 construct: Avi-tag-(Gly)8 –KRAS^G12V (2–188) was cloned into the pFastBac1 vector; made in house; host or cells: Tn5 insect cells, co-infected with BirA virus
Procedure: Determination of Kds was performed on the Octet RED platform, according to the manufacturer's recommendations in their application note on small molecule analysis. The prenylated KRAS peptide containing the farnesyl group attached to the terminal cysteine (biotin-[…](farnesyl)-OCH3) was obtained from AnaSpec (Fremont, California). Proteins were obtained as described above. […] The protein was attached to SuperStreptavidin biosensors (ForteBio 18–5057) via Avi-tagged-KRAS G12V:[…], followed by the KRAS protein to a final concentration of 40nM. After incubation for 1h at RT, the protein was loaded into a 96-well plate (Greiner 655209), and loaded a BLI response of 3-4nm. […] A reference sensor was run to remove systematic drift, and a second set of SuperStreptavidin biosensors blocked with biocytin was examined to remove systematic optical interferences, and to check for non-specific binding of compounds to the biosensor. Kds were determined using the ForteBio analysis software tool, which determines Kd from the steady-state plot, or from the determination of the kinetic constants kon and koff. […] After establishing reproducibility with compound 3, all other compounds were measured in singleton.

[3] = molecular target: T6, GTPγS-loaded, prenylated KRAS^G12V (Homo sapiens, UniProt P01116, G12V); assay: Coupled KRAS-BRAF-MEK assay (BRAF activation by KRAS, AlphaScreen pMEK readout); type: biochemical
T6 construct: made in house; host or cells: insect cells (Sf9, Sf21 or Tn5), baculovirus

[4] = molecular target: T7, non-prenylated GDP-KRAS^G12V (Homo sapiens, UniProt P01116, G12V); assay: HSQC NMR binding / titration; settings: non-processed GDP-loaded KRAS^G12V (1–169) in aqueous buffer, no PS; estimated from titration
T7 construct: HSQC experiments were run with ^15N-labeled and GDP-loaded K-RAS^G12V (1–169)
Procedure: (§2) The buffer contained 20mM Tris HCl, pH8.0, 50mM NaCl, 1mM MgCl2, 2mM DTT. […] 500 fragments from a fragment library [53] were screened by T1ρ ligand observation experiments, followed by protein-observed HSQC experiments. ^31P NMR spectra were acquired at 278°K on a Bruker AV400 spectrometer operating at 161.6 MHz ^31P frequency, equipped with a BBO probe.

[5] = molecular target: T8, non-prenylated GMPPNP-loaded KRAS^G12V (Homo sapiens, UniProt P01116, G12V); assay: 31P-NMR conformational state of KRAS; settings: KRAS^G12V 5 mg/ml; 1 mM compound 2 or 0.5 mM CRAF-RBD
T8 construct: HSQC experiments were run with ^15N-labeled and GDP-loaded K-RAS^G12V (1–169)
Procedure: as §2

[6] = parameters: method as in PMID 22431598; settings: cited from earlier work
[7] = molecular target: truncated GDP-loaded KRAS; settings: cited from earlier work
[8] = full-length prenylated GTPγS-loaded KRAS^G12V, PS liposomes, read-out: Kd BLI
[9] = BRAF^V600E, no KRAS, geomean, read-out: Counter-screen IC50
[10] = GTPγS-loaded full-length prenylated KRAS^G12V in PS, geomean, read-out: Coupled assay IC50
[11] = non-processed GDP-loaded KRAS in aqueous buffer, read-out: Kd HSQC

T4 sequence (P15056 whole entry V600E): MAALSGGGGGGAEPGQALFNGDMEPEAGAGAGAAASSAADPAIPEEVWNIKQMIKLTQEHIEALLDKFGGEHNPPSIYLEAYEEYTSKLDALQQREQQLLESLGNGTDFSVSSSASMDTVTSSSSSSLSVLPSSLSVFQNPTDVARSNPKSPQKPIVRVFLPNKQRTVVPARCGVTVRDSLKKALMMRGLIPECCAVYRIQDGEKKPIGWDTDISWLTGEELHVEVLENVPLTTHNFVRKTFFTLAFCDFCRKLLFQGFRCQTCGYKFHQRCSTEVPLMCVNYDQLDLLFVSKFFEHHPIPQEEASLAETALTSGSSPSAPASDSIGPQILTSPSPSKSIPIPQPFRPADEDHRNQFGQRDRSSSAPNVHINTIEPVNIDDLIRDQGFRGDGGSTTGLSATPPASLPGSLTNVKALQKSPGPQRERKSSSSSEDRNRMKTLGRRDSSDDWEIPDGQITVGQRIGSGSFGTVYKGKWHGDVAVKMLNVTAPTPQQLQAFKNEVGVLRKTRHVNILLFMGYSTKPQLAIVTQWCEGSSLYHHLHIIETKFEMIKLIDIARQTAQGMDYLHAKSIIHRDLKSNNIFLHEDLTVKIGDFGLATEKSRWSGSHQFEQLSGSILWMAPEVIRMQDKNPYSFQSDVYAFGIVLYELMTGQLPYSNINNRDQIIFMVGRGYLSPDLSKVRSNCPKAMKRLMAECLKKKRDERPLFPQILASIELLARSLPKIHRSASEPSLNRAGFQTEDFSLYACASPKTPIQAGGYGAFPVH

| SMILES | Kd [1, 8] [nM] | EC50 (SW1990 cells) [µM] | effect on pAKT levels (A375 cells (BRAF^V600E)) | binding to prenylated peptide in BLI [2] | effect on pAKT and pERK (cellular activity) (SW1990 cells (KRAS^G12D)) | activity in the counter-screen (full length BRAF^V600E) | IC50 (full length BRAF^V600E; [9]) [µM] | IC50 [3, 10] [µM] | binding in BLI studies [1] | activity in the coupled assay [3] | Kd [7, 11] [mM] | also measured |
| --- | --- | --- | --- | --- | --- | --- | --- | --- | --- | --- | --- | --- |
| Clc1ccc(C[C@@H]2C[C@@H](NCc3c[nH]c4ccccc34)CCN2)cc1 [Compound 3] | 2600 ± 800 | 1.2 | unexpected pattern of modulation | binds to the prenylated peptide in a concentration-dependent manner | dose-dependent decreases in phosphorylation of both of the pathway markers | minimal activity was observed | > 25 | 1.2 |  |  |  | binding in BLI (KRAS construct 1–180): minimal binding was observed; binding in BLI (full-length KRAS; 10 μM compound): some binding was observed; binding in BLI (full-length KRAS; up to 3.3 μM compound): no binding was observed |
| O=C(N[C@H]1CCN[C@H](Cc2ccc(Cl)cc2)C1)c1c[nH]c2ccc(Br)cc12 [Compound 2] | 800 | 2.7 ± 1.4 | unexpected pattern of modulation |  | dose-dependent decreases in phosphorylation of both of the pathway markers | minimal activity was observed | 85 ± 47 | 0.8 ± 0.7 | minor non-specific binding |  |  | Kd [4]: 690 µM; γ-phosphate population (conformational state) by 31P-NMR [5]: shift to a single inactive population |
| CC(C)NCC(O)COc1cccc2cc[nH]c12 (centres unmarked) [Compound 1] |  | > 30 |  |  | inactive at the concentrations tested |  | > 250 | 87 ± 22 |  |  |  |  |
| O=C(N[C@H]1CCN(Cc2ccc(O)nc2)C1)c1c[nH]c2ccc(Cl)cc12 [Compound 4] | > 10000 | > 30 |  | did not bind | inactive at the concentrations tested |  | 115 | 49 | did not bind | negligible biochemical activity |  |  |
| Cc1[nH]c2cc(Cl)cc(Cl)c2c1CCN [Compound 5, reference compound] |  | 18 |  |  | double-digit μM potency in cells |  |  |  |  |  | 1.1 | Kd [1]: 34000 nM; potency in cell-based assays [6]: 16 µM; Kd ([7]; absence of a lipid environment, read-out: published Kd to truncated GDP-loaded KRAS): 1 mM; IC50 (full length BRAF^V600E): 29 µM; IC50 [3]: 7 µM |
| O=C(Nc1ccc2nc(Cc3c[nH]c4ccccc34)[nH]c2c1)C1CCCN1 (centres unmarked) [Compound 6, reference compound] |  | > 30 |  |  | inactive in cells | negligible activity | 134 |  |  | negligible activity | 0.34 |  |
